From PMC7413254 (Nature Communications, 2020)

Key:
[1] = tested on: non-expressing oocytes; type: cell-based, Xenopus laevis; settings: footnote b: highest intracellular concentration tested was 30 mM (solubility); for Trans-stimulation: total [3H]CQ transport, non-expressing oocytes: mean ± SEM, SEM; for Trans-stimulation data: total [3H]CQ transport / Total [3H]CQ transport, trans-stimulation by injected solute: non-expressing oocytes; for Trans-stimulation data: total [3H]CQ transport: normalised to the oocyte type control (control = 100)
Method: Unless specified otherwise, the transport assays were conducted over 1.5 h at 27.5 °C and the reaction buffer was ND96 (96 mM NaCl, 2 mM KCl, 1 mM MgCl2, 1.8 mM CaCl2, 10 mM MES and 10 mM Tris-base) at pH 5.5.
The intracellular concentrations were calculated using previous estimates of the volume of stage V–VI oocytes (~400 nL[60]). […] The oocytes were injected with VF-6 suspended in 25 nL ND96 buffer adjusted to pH 5.0, 5.5, 6.0 or 7.0, which corresponded to the injection of 2.5–250 fmol of H^+. The Na^+-dependence of the trans-stimulatory effect of VF-6 was assessed by injecting the oocytes with VF-6 suspended in ND96 buffer (pH 5.5) or a Na^+-free version of this buffer (the Na^+ was replaced with choline).
At least four independent experiments were performed (on different days and using oocytes from different frogs), and within each experiment measurements were made from ten oocytes per treatment.

[2] = molecular target: PfCRT^3D7 (Plasmodium falciparum, UniProt Q8IBZ9); assay: cell-based; type: cell-based; settings: for Trans-stimulation data: PfCRT-mediated [3H]CQ transport: 2nd of 6 trans-stimulation columns, footnote b: due to solubility the highest intracellular concentration tested was 30 mM, normalised to the oocyte type control = 100; for Trans-stimulation data: total [3H]CQ transport / Total [3H]CQ transport, trans-stimulation by injected solute: PfCRT3D7 oocytes; for Trans-stimulation data: total [3H]CQ transport / Trans-stimulation: total [3H]CQ transport, PfCRT3D7 oocytes / Total [3H]CQ transport, trans-stimulation by injected solute: footnote b: highest intracellular concentration tested was 30 mM (solubility); for Trans-stimulation data: total [3H]CQ transport: normalised to the oocyte type control (control = 100); for Trans-stimulation: total [3H]CQ transport, PfCRT3D7 oocytes: mean ± SEM, SEM
How it was run: (§1)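 Transport measured in Xenopus oocytes expressing the transporters, 1.5 h at 27.5 °C in ND96 pH 5.5 unless noted. For trans-stimulation, VF-6 injected in 25 nL ND96 at pH 5.0–7.0 or Na^+-free (choline) buffer; intracellular levels based on ~400 nL oocyte volume. Ten oocytes per treatment, ≥4 experiments.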

[3] = molecular target: PfCRT^Ecu1110 (Plasmodium falciparum, UniProt Q9N623, A220S/I356L/K76T/N326D); assay: cell-based; type: cell-based; settings: for Trans-stimulation data: total [3H]CQ transport / Total [3H]CQ transport, trans-stimulation by injected solute: PfCRTEcu1110 oocytes; for Trans-stimulation data: total [3H]CQ transport / Trans-stimulation: total [3H]CQ transport, PfCRTEcu1110 oocytes / Total [3H]CQ transport, trans-stimulation by injected solute: footnote b: highest intracellular concentration tested was 30 mM (solubility); for Trans-stimulation data: total [3H]CQ transport: normalised to the oocyte type control (control = 100); for Trans-stimulation: total [3H]CQ transport, PfCRTEcu1110 oocytes: mean ± SEM, SEM; for Trans-stimulation data: PfCRT-mediated [3H]CQ transport: footnote b: due to solubility the highest intracellular concentration tested was 30 mM, normalised to the oocyte type control = 100
How it was run: as §1

[4] = molecular target: T1, PfNT1 (Plasmodium falciparum, UniProt Q8IDM6); assay: cell-based; type: cell-based; settings: footnote b: highest intracellular concentration tested was 30 mM (solubility); for Trans-stimulation data: total [3H]CQ transport / Total [3H]CQ transport, trans-stimulation by injected solute: PfNT1 oocytes; for Trans-stimulation data: total [3H]CQ transport: normalised to the oocyte type control (control = 100); for Trans-stimulation: total [3H]CQ transport, PfNT1 oocytes: mean ± SEM, SEM
T1 construct: expressed in transfected cells; host or cells: Xenopus laevis oocytes (stage V-VI), cRNA-injected
How it was run: as §1

[5] = molecular target: PfCRT^Dd2 (Plasmodium falciparum, UniProt Q9N623, A220S/I356T/K76T/M74I/N326S/N75E/Q271E/R371I); assay: cell-based; type: cell-based; settings: for Trans-stimulation data: total [3H]CQ transport / Total [3H]CQ transport, trans-stimulation by injected solute: PfCRTDd2 oocytes; for Trans-stimulation data: total [3H]CQ transport / Trans-stimulation: total [3H]CQ transport, PfCRTDd2 oocytes / Total [3H]CQ transport, trans-stimulation by injected solute: footnote b: highest intracellular concentration tested was 30 mM (solubility); for Trans-stimulation data: total [3H]CQ transport: normalised to the oocyte type control (control = 100); for PfCRT-mediated [3H]CQ transport, trans-stimulation by injected solute, PfCRTDd2 / Trans-stimulation data: PfCRT-mediated [3H]CQ transport: footnote b: due to solubility the highest intracellular concentration tested was 30 mM; for PfCRT-mediated [3H]CQ transport, trans-stimulation by injected solute, PfCRTDd2: background subtracted; for Trans-stimulation: total [3H]CQ transport, PfCRTDd2 oocytes: mean ± SEM, SEM; for Trans-stimulation data: PfCRT-mediated [3H]CQ transport: normalised to the oocyte type control = 100
How it was run: as §1

Sequence of PfCRT^Ecu1110 (Q9N623 whole entry A220S/I356L/K76T/N326D): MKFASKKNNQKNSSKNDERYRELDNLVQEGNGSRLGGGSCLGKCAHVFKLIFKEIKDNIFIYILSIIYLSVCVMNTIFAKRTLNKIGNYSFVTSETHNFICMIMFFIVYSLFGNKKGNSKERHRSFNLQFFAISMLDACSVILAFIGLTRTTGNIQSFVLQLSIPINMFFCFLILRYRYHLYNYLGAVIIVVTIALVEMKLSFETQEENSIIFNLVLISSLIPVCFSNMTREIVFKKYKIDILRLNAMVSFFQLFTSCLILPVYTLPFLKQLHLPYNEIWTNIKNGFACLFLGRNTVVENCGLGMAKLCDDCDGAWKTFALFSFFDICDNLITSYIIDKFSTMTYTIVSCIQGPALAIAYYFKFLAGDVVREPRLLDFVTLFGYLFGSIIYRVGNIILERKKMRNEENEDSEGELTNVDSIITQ
Sequence of PfCRT^Dd2 (Q9N623 whole entry A220S/I356T/K76T/M74I/N326S/N75E/Q271E/R371I): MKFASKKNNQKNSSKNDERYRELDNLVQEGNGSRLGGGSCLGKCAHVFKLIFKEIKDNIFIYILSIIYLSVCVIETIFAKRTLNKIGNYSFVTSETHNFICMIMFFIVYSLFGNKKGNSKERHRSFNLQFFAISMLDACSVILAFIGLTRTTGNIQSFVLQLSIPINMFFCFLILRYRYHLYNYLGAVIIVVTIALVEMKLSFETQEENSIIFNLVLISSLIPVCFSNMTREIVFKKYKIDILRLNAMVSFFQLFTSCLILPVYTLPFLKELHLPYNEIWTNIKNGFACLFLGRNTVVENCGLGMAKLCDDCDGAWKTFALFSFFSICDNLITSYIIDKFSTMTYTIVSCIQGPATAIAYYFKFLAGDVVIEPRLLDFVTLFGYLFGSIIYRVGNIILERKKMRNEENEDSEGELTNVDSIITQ
Sequence of PfCRT^3D7 (Q8IBZ9 59-398): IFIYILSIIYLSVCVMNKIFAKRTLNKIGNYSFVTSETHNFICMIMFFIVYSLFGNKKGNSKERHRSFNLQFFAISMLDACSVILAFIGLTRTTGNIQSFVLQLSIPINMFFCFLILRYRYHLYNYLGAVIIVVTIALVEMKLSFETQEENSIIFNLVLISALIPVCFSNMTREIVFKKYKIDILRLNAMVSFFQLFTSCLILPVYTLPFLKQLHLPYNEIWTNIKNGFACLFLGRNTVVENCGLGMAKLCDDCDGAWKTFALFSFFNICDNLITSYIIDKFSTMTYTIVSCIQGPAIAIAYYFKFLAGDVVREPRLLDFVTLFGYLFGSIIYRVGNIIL
T1 sequence (Q8IDM6 whole entry): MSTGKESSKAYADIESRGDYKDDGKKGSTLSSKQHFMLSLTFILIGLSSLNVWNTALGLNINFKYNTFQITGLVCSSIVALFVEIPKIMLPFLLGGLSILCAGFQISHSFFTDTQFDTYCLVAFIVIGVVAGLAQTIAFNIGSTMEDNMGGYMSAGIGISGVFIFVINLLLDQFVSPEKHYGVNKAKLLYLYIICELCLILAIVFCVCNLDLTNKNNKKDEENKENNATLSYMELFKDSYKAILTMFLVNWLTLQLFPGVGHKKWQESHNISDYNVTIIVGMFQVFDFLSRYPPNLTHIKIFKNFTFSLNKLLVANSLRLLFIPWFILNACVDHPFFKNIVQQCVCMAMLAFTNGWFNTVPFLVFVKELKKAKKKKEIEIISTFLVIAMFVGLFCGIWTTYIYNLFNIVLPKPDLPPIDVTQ

Row | Sequence | Trans-stimulation: total [3H]CQ transport, non-expressing oocytes [1] | Trans-stimulation data: total [3H]CQ transport [1] | Trans-stimulation data: PfCRT-mediated [3H]CQ transport [2] | Trans-stimulation data: total [3H]CQ transport [2] | Trans-stimulation: total [3H]CQ transport, PfCRT3D7 oocytes [2] | Trans-stimulation data: total [3H]CQ transport [3] | Trans-stimulation: total [3H]CQ transport, PfCRTEcu1110 oocytes [3] | Trans-stimulation data: PfCRT-mediated [3H]CQ transport [3] | Trans-stimulation data: total [3H]CQ transport [4] | Trans-stimulation: total [3H]CQ transport, PfNT1 oocytes [4] | Trans-stimulation data: total [3H]CQ transport [5] | PfCRT-mediated [3H]CQ transport, trans-stimulation by injected solute, PfCRTDd2 [5] | Trans-stimulation: total [3H]CQ transport, PfCRTDd2 oocytes [5] | Trans-stimulation data: PfCRT-mediated [3H]CQ transport [5] | Total [3H]CQ transport, trans-stimulation by injected solute [1] | Total [3H]CQ transport, trans-stimulation by injected solute [2] | Total [3H]CQ transport, trans-stimulation by injected solute [3] | Total [3H]CQ transport, trans-stimulation by injected solute [4] | Total [3H]CQ transport, trans-stimulation by injected solute [5]
1 | GTFATLSELHCDK [GK-13] | 2.6 ± 0.05b % of PfCRTDd2 control | 100 ± 3.8b | 98 ± 4.1b | 100 ± 3.6b | 3.1 ± 0.04b % of PfCRTDd2 control | 99 ± 2.2b | 32 ± 1.5b % of PfCRTDd2 control | 97 ± 1.9b | 99 ± 2.7b | 2.6 ± 0.04b % of PfCRTDd2 control | 97 ± 2.7b | 95 ± 1.3b % of PfCRTDd2 control | 97 ± 2.7b % of PfCRTDd2 control | 95 ± 1.3b | – | – | – | – | –
2 | LTPEEKSAVTAL [LL-12] | 3.2 ± 0.08b % of PfCRTDd2 control | 99 ± 2.4b | 97 ± 3.4b | 99 ± 2.7b | 3.1 ± 0.05b % of PfCRTDd2 control | 100 ± 2.2b | 33 ± 1.0b % of PfCRTDd2 control | 98 ± 1.7b | 99 ± 2.5b | 2.2 ± 0.06b % of PfCRTDd2 control | 100 ± 2.8b | 98 ± 1.1b % of PfCRTDd2 control | 100 ± 2.8b % of PfCRTDd2 control | 98 ± 1.1b | – | – | – | – | –
3 | LTPEEKSAVTALWGKVNVDEVGGEA [LA-25, additional peptide, 25 residues] | – | 101 ± 3.3b | 97 ± 3.1b | 99 ± 2.6b | – | 101 ± 4.3b | – | 98 ± 4.2b | 101 ± 4.1b | – | 100 ± 3.3b | 97 ± 3.3b % of PfCRTDd2 control | – | 97 ± 3.3b | 2.5 ± 0.04b % of the PfCRTDd2 control | 3.1 ± 0.02b % of the PfCRTDd2 control | 33 ± 1.8b % of the PfCRTDd2 control | 2.7 ± 0.07b % of the PfCRTDd2 control | 100 ± 3.3b % of the PfCRTDd2 control
4 | NAVAHVDDMPNALSALSDLH [NH-20, additional peptide, 20 residues] | – | 101 ± 4.8b | 95 ± 3.2b | 99 ± 3.5b | – | 100 ± 3.5b | – | 97 ± 3.2b | 100 ± 3.6b | – | 99 ± 2.8b | 97 ± 3.6b % of PfCRTDd2 control | – | 97 ± 3.6b | 3.3 ± 0.07b % of the PfCRTDd2 control | 3.0 ± 0.05b % of the PfCRTDd2 control | 32 ± 1.7b % of the PfCRTDd2 control | 3.2 ± 0.07b % of the PfCRTDd2 control | 99 ± 2.8b % of the PfCRTDd2 control
5 | SFGDLSTPDAVMG [SG-13] | – | 100 ± 3.6b | 97 ± 1.9b | 99 ± 2.5b | – | 101 ± 2.4b | – | 99 ± 1.8b | 98 ± 2.4b | – | 100 ± 2.9b | 98 ± 3.0b % of PfCRTDd2 control | – | 98 ± 3.0b | 3.0 ± 0.04b % of the PfCRTDd2 control | 3.1 ± 0.05b % of the PfCRTDd2 control | 33 ± 1.4b % of the PfCRTDd2 control | 2.9 ± 0.09b % of the PfCRTDd2 control | 100 ± 2.9b % of the PfCRTDd2 control
